Experimental data published in patent US20240309016A1, “MACROCYCLIC HETEROCYCLE COMPOUNDS AND USE THEREOF” (TAKEDA PHARMACEUTICAL COMPANY LIMITED, priority 2023, published 2024).

Molecular target: T1, human OX2 receptor (Homo sapiens, UniProt O43614)
T1 construct: expressed in transfected cells
T1 sequence (O43614 1-444): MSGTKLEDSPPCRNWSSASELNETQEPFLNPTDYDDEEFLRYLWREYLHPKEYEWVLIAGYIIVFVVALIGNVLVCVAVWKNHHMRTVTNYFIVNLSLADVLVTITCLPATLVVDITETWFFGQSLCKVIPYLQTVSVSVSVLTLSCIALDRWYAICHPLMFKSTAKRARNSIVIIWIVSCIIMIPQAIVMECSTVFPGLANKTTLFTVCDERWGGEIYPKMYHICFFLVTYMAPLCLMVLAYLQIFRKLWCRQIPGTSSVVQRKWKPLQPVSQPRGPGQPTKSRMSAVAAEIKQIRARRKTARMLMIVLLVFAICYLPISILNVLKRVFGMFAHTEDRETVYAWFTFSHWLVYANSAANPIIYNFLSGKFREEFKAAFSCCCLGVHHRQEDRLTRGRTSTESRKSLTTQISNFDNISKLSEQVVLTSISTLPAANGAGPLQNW
Experiment: Measurement of orexin type 2 receptor agonist activity (Experimental Example 2; Fluo-4 AM calcium fluorescence, FDSS μCELL)
Format: cell-based
Details: compound at 3 μM; CHO cells expressing human OX2 receptor; DMSO = 0%, 10 nM orexin A (human) = 100%
Protocol: In order to obtain cell clones that stably express human orexin type 2 receptor, human orexin type 2 (residues 1-444, NCBI Reference Sequence: AK314279) was constructed in a pcDNA3.1 (+) vector (Invitrogen) to express in mammalian cells. This plasmid DNA was transfected into CHO-K1 cells by electroporation, and stable clones were obtained by limiting dilution using resistance to G418 as a selection marker.
CHO cells in which human OX2 receptor was forcibly expressed were seeded at 10,000 cells/well into a 384-well black transparent bottom plate (BD falcon), and were incubated at 37° C., 5% CO2 for 1 day after incubation at room temperature for 30 minutes. After removing the cell plate medium, assay buffer containing calcium indicator A (HBSS (Thermo Fisher Scientific), 20 mM HEPES (Thermo Fisher Scientific), 0.1% BSA (Sigma-Aldrich), 2.5 μg/mL Fluo-4 AM (Dojin Kagaku), 0.08% Pluronic F127 (Dojin Kagaku), 1.25 mM probenecid (Dojin Kagaku)) was added at 30 μL/well. After incubation in a 5% CO2 incubator at 37° C. for 30 minutes, it was incubated at room temperature for another 30 minutes. Add 10 μL/well of the test compound diluted with assay buffer B (HBSS, 20 mM HEPES, 0.1% BSA), and use FDSS μCELL (Hamamatsu Photonics) to measure the fluorescence value every 1 second for 1 minute, and then every 2 seconds for 1 minute. It was measured for 1 minute and 40 seconds. The amount of fluorescence value when DMSO is added instead of the test compound is defined as 0%, and the amount of fluorescence value when orexin A (human) (Peptide Institute) with a final concentration of 10 nM is added is defined as 100%. The activity (%) of the test compound was calculated. Table 2-1, 2-2, 2-3, and 2-4 show the activity of each compound at a concentration of 3 μM.

Row | SMILES | OX2R agonist activity (3 μM, %) [%]
1 | Cc1ccc2nc1Oc1cc(ccc1F)C[C@H]1[C@@H](NS(C)(=O)=O)CCN1C(=O)NC2 (relative stereo) [Example 9, N-[rel-(15aR,16R)-11-fluoro-7-methyl-1-oxo-2,3,15a,16,17,18-hexahydro-1H,15H-4,8-(azeno)-10,14-(metheno)pyrrolo[1,2-j][1,8,10]oxadiazacyclo-heptadecin-16-yl]methanesulfonamide (optical isomer)] | 93
2 | CCS(=O)(=O)N[C@@H]1[C@@H]2Cc3cccc(c3)Oc3nc(ccc3Cl)CNC(=O)N2CC1(F)F (relative stereo) [Example 53, N-[rel-(15aR,16S)-7-chloro-17,17-difluoro-1-oxo-2,3,15a,16,17,18-hexahydro-1H,15H-4,8-(azeno)-14,10-(metheno)pyrrolo[1,2-j][1,8,10]oxadiazacyclo-heptadecin-16-yl]ethanesulfonamide (optical isomer)] | 100
3 | Cc1ccc2nc1Oc1cc(ccc1F)C[C@H]1[C@@H](NS(C)(=O)=O)C(F)(F)CN1C(=O)NC2 (relative stereo) [Example 86, N-[rel-(15aS,16R)-11,17,17-trifluoro-7-methyl-1-oxo-2,3,15a,16,17,18-hexahydro-1H,15H-4,8-(azeno)-14,10-(metheno)pyrrolo[1,2-j][1,8,10]oxadiazacyclo-heptadecin-16-yl]methanesulfonamide (optical isomer)] | 102
4 | CCS(=O)(=O)N[C@@H]1[C@@H]2Cc3cc(F)cc(c3)Oc3nc(ccc3C)CNC(=O)N2CC1(F)F (relative stereo) [Example 89, N-[rel-(15aS,16R)-12,17,17-trifluoro-7-methyl-1-oxo-2,3,15a,16,17,18-hexahydro-1H,15H-4,8-(azeno)-14,10-(metheno)pyrrolo[1,2-j][1,8,10]oxadiazacyclo-heptadecin-16-yl]ethanesulfonamide (optical isomer)] | 114
5 | CCS(=O)(=O)N[C@@H]1[C@@H]2Cc3cc(ccc3F)Oc3nc(ccc3C)CNC(=O)N2CC1(F)F (relative stereo) [Example 90, N-[rel-(15aS,16R)-13,17,17-trifluoro-7-methyl-1-oxo-2,3,15a,16,17,18-hexahydro-1H,15H-4,8-(azeno)-14,10-(metheno)pyrrolo[1,2-j][1,8,10]oxadiazacyclohepta-decin-16-yl]ethanesulfonamide (optical isomer)] | 108
6 | CCS(=O)(=O)N[C@H]1[C@@H](F)CN2C(=O)COc3ccc(Cl)c(n3)Oc3cc(ccc3F)C[C@@H]12 (relative stereo) [Example 91, N-[rel-(15aR,16S,17R)-7-chloro-11,17-difluoro-1-oxo-1,2,15a,16,17,18-hexahydro-15H-4,8-(azeno)-14,10-(metheno)pyrrolo[1,2-d][1,12,4]dioxazacyclohepta-decin-16-yl]ethanesulfonamide (optical isomer)] | 106
7 | CS(=O)(=O)N[C@@H]1[C@@H]2Cc3ccc(F)c(c3)Oc3nc(ccc3Cl)OCC(=O)N2CC1(F)F (relative stereo) [Example 95, N-[rel-(15aS,16R)-7-chloro-11,17,17-trifluoro-1-oxo-1,2,15a,16,17,18-hexahydro-15H-4,8-(azeno)-14,10-(metheno)pyrrolo[1,2-d][1,12,4]dioxazacyclo-heptadecin-16-yl]methanesulfonamide (optical isomer)] | 103
8 | CS(=O)(=O)N[C@@H]1[C@@H]2Cc3cccc(c3)Oc3nc(ccc3C(F)F)[C@@H]3C[C@@H]3C(=O)N2CC1(F)F (single isomer, unassigned) [Example 107] | 108
9 | CS(=O)(=O)N[C@H]1CCN2C(=O)NCc3ccc(C(F)F)c(n3)Oc3cccc(c3)C[C@@H]12 [Example 8, N-[(15aS,16S)-7-(difluoromethyl)-1-oxo-2,3,15a,16,17,18-hexahydro-1H,15H-4,8-(azeno)-14,10-(metheno)pyrrolo[1,2-j][1,8,10]oxadiazacyclo-heptadecin-16-yl]methanesulfonamide] | 100
10 | Cc1ccc2nc1Oc1cccc(c1F)C[C@H]1[C@@H](NS(=O)(=O)N(C)C)C(F)(F)CN1C(=O)NC2 [Example 11, N,N-dimethyl-N′-[(15aS,16R)-17,17,20-trifluoro-7-methyl-1-oxo-2,3,15a,16,17,18-hexahydro-1H,15H-4,8-(azeno)-14,10-(metheno)pyrrolo[1,2-j][1,8,10]oxadiazacyclo-heptadecin-16-yl]sulfuric diamide] | 98
11 | CS(=O)(=O)N[C@H]1CCN2C(=O)NCc3ccc(Cl)c(n3)Oc3cccc(c3)C[C@@H]12 [Example 16, N-[(15aS,16S)-7-chloro-1-oxo-2,3,15a,16,17,18-hexahydro-1H,15H-4,8-(azeno)-10,14-(metheno)pyrrolo[1,2-j][1,8,10]oxadiazacyclo-heptadecin-16-yl]methanesulfonamide] | 99

The remaining lines, values ahead:

Row | OX2R agonist activity (3 μM, %) [%] | SMILES
12 | 101 | CCS(=O)(=O)N[C@H]1CCN2C(=O)NCc3ccc(C)c(n3)Oc3cccc(c3)C[C@@H]12 [Example 3, N-[(15aS,16S)-7-methyl-1-oxo-2,3,15a,16,17,18-hexahydro-1H,15H-4,8-(azeno)-10,14-(metheno)pyrrolo[1,2-j][1,8,10]oxadiazacyclo-heptadecin-16-yl]ethanesulfonamide]
13 | 99 | CS(=O)(=O)N[C@H]1[C@@H](F)CN2C(=O)NCc3ccc(Cl)c(c3)Oc3cccc(c3F)C[C@@H]12 [Example 12, N-[(15aS,16R,17S)-7-chloro-17,20-difluoro-1-oxo-2,3,15a,16,17,18-hexahydro-1H,15H-4,8:14,10-di(metheno)pyrrolo[1,2-j][1,8,10]oxadiazacyclo-heptadecin-16-yl]methanesulfonamide]
14 | 99 | CN(C)S(=O)(=O)N[C@@H]1[C@@H]2Cc3cccc(c3F)Oc3nc(ccc3Cl)CNC(=O)N2CC1(F)F [Example 13, N′-[(15aS,16R)-7-chloro-17,17,20-trifluoro-1-oxo-2,3,15a,16,17,18-hexahydro-1H,15H-4,8-(azeno)-14,10-(metheno)pyrrolo[1,2-j][1,8,10]oxadiazacyclo-heptadecin-16-yl]-N,N-dimethylsulfuric diamide]
15 | 99 | CS(=O)(=O)N[C@@H]1[C@@H]2Cc3cccc(c3F)Oc3nc(ccc3Cl)CNC(=O)N2CC1(F)F [Example 14, N-[(15aS,16R)-7-chloro-17,17,20-trifluoro-1-oxo-2,3,15a,16,17,18-hexahydro-1H,15H-4,8-(azeno)-14,10-(metheno)pyrrolo[1,2-j][1,8,10]oxadiazacyclo-heptadecin-16-yl]methanesulfonamide]
16 | 104 | CS(=O)(=O)N[C@H]1[C@@H](F)CN2C(=O)NCc3ccc(Cl)c(n3)Oc3cccc(c3F)C[C@@H]12 [Example 15, N-[(15aS,16R,17S)-7-chloro-17,20-difluoro-1-oxo-2,3,15a,16,17,18-hexahydro-1H,15H-4,8-(azeno)-14,10-(metheno)pyrrolo[1,2-j][1,8,10]oxadiazacyclo-heptadecin-16-yl]methanesulfonamide]
